Consider 28 compounds from patent publication US12410160B2 (Gilead Sciences, Inc., priority 2021, dated 2025).

One may read the IC50 as the concentration that inhibits the measured activity by half. Higher therefore signals weaker potency. As usually defined, the EC50 is the midpoint of the concentration-response curve. Lower therefore signals greater potency.

One assay addresses human KHK-C (Homo sapiens (Human), UniProt P50053). The assay is described as follows: KHK Biochemical Assay (IC50), ADP-Glo, KHK-C. To be noted: ADP-Glo; average of at least two separate assays. The gist of the method: (§1)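 Luminescent ADP-Glo read-out of ADP made by His-tagged KHK (BL21 (DE3) expression, Ni-NTA). Enzyme and compound sat together 30 min before ATP/fructose addition, then reacted 4 h at RT in Hepes pH 7.4 buffer with KCl, MgCl2, Triton-X. Quench 1 h, detection 1 h.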
For orientation: ADP-Glo first removes unused ATP, then detects ADP through luciferase.

The next assay addresses human KHK-A (Homo sapiens (Human), UniProt P50053). Kind of assay: KHK Biochemical Assay (IC50), ADP-Glo, KHK-A. To be noted: ADP-Glo; average of at least two separate assays. An outline of the steps:
as §1

Assay [1] addresses KHK-C expressed in NRK-52E cells (Homo sapiens (Human), UniProt P50053). Kind of assay: KHK-C Cell-based Assay (EC50), NRK CTG, fructose-mediated ATP-depletion.

human KHK-A, sequence (P50053 other isoform, or with tags, fused parts or gaps): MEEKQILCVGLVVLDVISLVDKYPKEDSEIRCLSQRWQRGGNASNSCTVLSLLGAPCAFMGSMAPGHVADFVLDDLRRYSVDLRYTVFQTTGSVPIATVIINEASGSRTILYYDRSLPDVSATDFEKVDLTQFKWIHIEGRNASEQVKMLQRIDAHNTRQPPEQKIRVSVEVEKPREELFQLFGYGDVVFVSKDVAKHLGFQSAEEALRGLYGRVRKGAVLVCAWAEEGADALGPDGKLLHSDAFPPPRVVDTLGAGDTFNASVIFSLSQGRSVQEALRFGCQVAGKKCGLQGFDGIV
human KHK-C, sequence (P50053 whole entry): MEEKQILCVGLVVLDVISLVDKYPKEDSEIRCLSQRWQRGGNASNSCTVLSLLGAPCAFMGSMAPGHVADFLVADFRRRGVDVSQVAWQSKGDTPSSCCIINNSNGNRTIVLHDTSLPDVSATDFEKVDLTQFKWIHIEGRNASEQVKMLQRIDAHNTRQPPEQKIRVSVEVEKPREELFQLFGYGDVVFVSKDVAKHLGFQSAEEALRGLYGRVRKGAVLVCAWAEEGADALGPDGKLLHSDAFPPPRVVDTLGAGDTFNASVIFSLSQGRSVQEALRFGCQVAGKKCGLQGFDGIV
KHK-C expressed in NRK-52E cells, sequence (P50053 whole entry): as above

Consider `C[C@H]1CCN1c1nc2c(c(-c3cc4cc(C(=O)O)ccc4[nH]3)n1)CCC2` [Example 153, (S)-2-(2-(2-methylazetidin-1-yl)-6,7-dihydro-5H-cyclopenta[d]pyrimidin-4-yl)-1H-indole-5-carboxylic acid], for which the IC50 against human KHK-C worked out at 66.6 nM; against human KHK-A it was 186 nM. In assay [1], the EC50 was 4000 nM.
As to `C[C@H]1CCN1c1nc2c(c(-c3cc4cccc(C(N)=O)c4[nH]3)n1)CCC2` [Example 154, (S)-2-(2-(2-methylazetidin-1-yl)-6,7-dihydro-5H-cyclopenta[d]pyrimidin-4-yl)-1H-indole-7-carboxamide], the results for the IC50 at human KHK-C and against human KHK-A were 90.4 nM and 45.8 nM, respectively. In assay [1], this compound came in with an EC50 of 34 nM.
The like results for `C[C@H]1CCN1c1nc2c(c(-c3cc4c(C(=O)O)cccc4[nH]3)n1)CCC2` [Example 155, (S)-2-(2-(2-methylazetidin-1-yl)-6,7-dihydro-5H-cyclopenta[d]pyrimidin-4-yl)-1H-indole-4-carboxylic acid] were, in that order, 99.5 nM, 232 nM and 4790 nM.
Taken in the same sequence, the figures for `C[C@H]1CCN1c1nc2c(c(-c3cc4c(C(N)=O)cccc4[nH]3)n1)CCC2` [Example 156, (S)-2-(2-(2-methylazetidin-1-yl)-6,7-dihydro-5H-cyclopenta[d]pyrimidin-4-yl)-1H-indole-4-carboxamide] were 82 nM, 99.9 nM and 145 nM.
Taken in the same sequence, the figures for `C[C@H]1CCN1c1nc(-c2ccc(C(N)=O)cc2)c2c(n1)C(F)(F)CCC2` [Example 157, (S)-4-(8,8-difluoro-2-(2-methylazetidin-1-yl)-5,6,7,8-tetrahydroquinazolin-4-yl)benzamide] were 211 nM, 125 nM and 291 nM.
On to `C[C@H]1[C@H](O)CN1c1nc(-c2ccc(C(N)=O)cc2)c2c(n1)C(F)(F)CCC2` [Example 158], for which the IC50 against human KHK-C came to 314 nM; on human KHK-A it was 217 nM. For the same compound, the EC50 in assay [1] is 1120 nM.
Turning to `C[C@H]1CCN1c1nc2c(c(-c3ccc4nc(O)ccc4c3)n1)CCC2` [Example 175, (S)-6-(2-(2-methylazetidin-1-yl)-6,7-dihydro-5H-cyclopenta[d]pyrimidin-4-yl)quinolin-2-ol], the figures for the IC50 against human KHK-C and against human KHK-A were 49.8 nM and 66.5 nM, respectively. Further, the EC50 in assay [1] was 249 nM.
For `C[C@H]1CCN1c1nc2c(c(-c3ccc4[nH]c(C(N)=O)cc4c3)n1)CCC2` [Example 184, 5-[2-[(2S)-2-methylazetidin-1-yl]-6,7-dihydro-5H-cyclopenta[d]pyrimidin-4-yl]-1H-indole-2-carboxamide], the IC50 against human KHK-C came out at 210 nM; against human KHK-A, 152 nM. In addition, the response in assay [1] was half-maximal at 275 nM (EC50).
For the compound `C[C@H]1CCN1c1nc2c(c(-c3ccc(-c4ncc[nH]4)cc3)n1)CCC2` [Example 185, 4-[4-(1H-imidazol-2-yl)phenyl]-2-[(2S)-2-methylazetidin-1-yl]-6,7-dihydro-5H-cyclopenta[d]pyrimidine], the IC50 against human KHK-C was found to be 48.8 nM; at human KHK-A, 60.6 nM. In assay [1], this compound came in with an EC50 of 83.9 nM.
Turning to `C[C@H]1CCN1c1nc2c(c(-c3ccc4c(c3)CN(C)C4=O)n1)CCC2` [Example 186, 2-methyl-5-[2-[(2S)-2-methylazetidin-1-yl]-6,7-dihydro-5H-cyclopenta[d]pyrimidin-4-yl]isoindolin-1-one], the IC50 on human KHK-C came to 66.9 nM; on human KHK-A it was 78.2 nM. In assay [1], this compound gave an EC50 of 143 nM.
Taken in the same sequence, the figures for `C[C@H]1CCN1c1nc2c(c(-c3ccc4c(c3)CNC4=O)n1)CCC2` [Example 187, 5-[2-[(2S)-2-methylazetidin-1-yl]-6,7-dihydro-5H-cyclopenta[d]pyrimidin-4-yl]isoindolin-1-one] were 22.4 nM, 33.3 nM and 91.6 nM.
Taken in the same sequence, the figures for `C[C@H]1CCN1c1nc2c(c(-c3ccc(S(N)(=O)=O)cc3)n1)CCC2` [Example 189, 4-[2-[(2S)-2-methylazetidin-1-yl]-6,7-dihydro-5H-cyclopenta[d]pyrimidin-4-yl]benzenesulfonamide] were 61.7 nM, 81.6 nM and 112 nM.
Taken in the same sequence, the figures for `C[C@H]1CCN1c1nc2c(c(-c3cccc(C(C)(C)N)c3)n1)CCC2` [Example 190, 2-[3-[2-[(2S)-2-methylazetidin-1-yl]-6,7-dihydro-5H-cyclopenta[d]pyrimidin-4-yl]phenyl]propan-2-amine] were 40.8 nM, 48.7 nM and 28.1 nM.
`C[C@H]1[C@H](O)CN1c1nc2c(c(-c3ccc(-c4ncc[nH]4)cc3)n1)CCC2` [Example 193, (2S,3R)-1-[4-[4-(1H-imidazol-2-yl)phenyl]-6,7-dihydro-5H-cyclopenta[d]pyrimidin-2-yl]-2-methyl-azetidin-3-ol]: the IC50 on human KHK-C worked out at 97.8 nM; on human KHK-A, 73.4 nM. This compound gave an EC50 in assay [1] of 412 nM.
The like results for `C[C@H]1[C@H](O)CN1c1nc2c(c(-c3ccc4c(c3)CNC4=O)n1)CCC2` [Example 196, 5-[2-[(2S,3R)-3-hydroxy-2-methyl-azetidin-1-yl]-6,7-dihydro-5H-cyclopenta[d]pyrimidin-4-yl]isoindolin-1-one] were, in that order, 86.7 nM, 136 nM and 367 nM.
Turning to `C[C@H]1[C@H](F)CN1c1nc2c(c(-c3ccc(C(N)=O)cc3)n1)CCC2` [Example 200, 4-[2-[(2S,3R)-3-fluoro-2-methyl-azetidin-1-yl]-6,7-dihydro-5H-cyclopenta[d]pyrimidin-4-yl]benzamide], the IC50 at human KHK-C turned out to be 10.9 nM; against human KHK-A it was 14.9 nM. The same compound registered an EC50 in assay [1] of 49.3 nM.
The like results for `C[C@H]1[C@H](F)CN1c1nc2c(c(-c3ccc(CN)cc3)n1)CCC2` [Example 201, [4-[2-[(2S,3R)-3-fluoro-2-methyl-azetidin-1-yl]-6,7-dihydro-5H-cyclopenta[d]pyrimidin-4-yl]phenyl]methanamine] were, in that order, 1.7 nM, 2.9 nM and 130 nM.
Regarding `C[C@H]1[C@H](O)CN1c1nc2c(c(-c3ccc(CN)cc3)n1)CCC2` [Example 202, (2S,3R)-1-[4-[4-(aminomethyl)phenyl]-6,7-dihydro-5H-cyclopenta[d]pyrimidin-2-yl]-2-methyl-azetidin-3-ol], the IC50 stood at 7.7 nM on human KHK-C and 9.8 nM against human KHK-A. In assay [1], this compound yielded an EC50 of 111 nM.
With `C[C@H]1[C@H](O)CN1c1nc2c(c(-c3ccc4c(c3)C(=O)N(C)C4)n1)CCC2` [Example 204], the results for the IC50 against human KHK-C and against human KHK-A were 37.2 nM and 118 nM, respectively. Also, the EC50 in assay [1] amounted to 109 nM.
On to `C[C@H]1CCN1c1nc2c(c(-c3ccc4c(c3)C(=O)NC4)n1)CCC2` [Example 207], for which the IC50 against human KHK-C stood at 28.2 nM; against human KHK-A it was 23.2 nM. This compound registered an EC50 in assay [1] of 55.8 nM.
On to `C[C@H]1C[C@H](C)N1c1nc2c(c(-c3cccc(S(N)(=O)=O)c3)n1)CCC2` [Example 208, 3-[2-[(28,48)-2,4-dimethylazetidin-1-yl]-6,7-dihydro-5H-cyclopenta[d]pyrimidin-4-yl]benzenesulfonamide], for which the IC50 against human KHK-C is 46.6 nM; at human KHK-A, 36.7 nM. Also, in assay [1], the EC50 stood at 36.4 nM.
`C[C@H]1[C@H](F)CN1c1nc2c(c(-c3cccc(S(N)(=O)=O)c3)n1)CCC2` [Example 210]: the IC50 against human KHK-C stood at 19.7 nM; against human KHK-A it was 17.6 nM. In assay [1], this compound came in with an EC50 of 38.2 nM.
Taken in the same sequence, the figures for `C[C@H]1CCN1c1nc(-c2ccccc2)c2c(ncn2C)n1` [Example 211, 7-methyl-2-[(2S)-2-methylazetidin-1-yl]-6-phenyl-purine] were 4760 nM, 7310 nM and greater than 50000 nM.
`C[C@H]1CCN1c1nc2c(c(-c3cnc(C(C)(C)O)s3)n1)CCC2` [Example 213, 2-[5-[2-[(2S)-2-methylazetidin-1-yl]-6,7-dihydro-5H-cyclopenta[d]pyrimidin-4-yl]thiazol-2-yl]propan-2-ol]: the IC50 was found to be 33.3 nM on human KHK-C and 52.6 nM against human KHK-A. For the same compound, the response in assay [1] was half-maximal at 52.5 nM (EC50).
Taken in the same sequence, the figures for `C[C@H]1CCN1c1nc2c(c(-c3cccc(C(=O)NCC(N)=O)c3)n1)CCC2` [Example 216, N-(2-amino-2-oxo-ethyl)-3-[2-[(2S)-2-methylazetidin-1-yl]-6,7-dihydro-5H-cyclopenta[d]pyrimidin-4-yl]benzamide] were 38.4 nM, 37.8 nM and 390 nM.
Consider `C[C@H]1CCN1c1nc2c(c(-c3cccc(C(=O)NCCC(=O)O)c3)n1)CCC2` [Example 217, 3-[[3-[2-[(2S)-2-methylazetidin-1-yl]-6,7-dihydro-5H-cyclopenta[d]pyrimidin-4-yl]benzoyl]amino]propanoic acid], for which the IC50 was found to be 90.3 nM on human KHK-C and 130 nM at human KHK-A. This compound also gave an EC50 in assay [1] greater than 5000 nM.
Taken in the same sequence, the figures for `C[C@H]1CCN1c1nc2c(c(-c3cccc(C(=O)NCCS(N)(=O)=O)c3)n1)CCC2` [Example 219, 3-[2-[(2S)-2-methylazetidin-1-yl]-6,7-dihydro-5H-cyclopenta[d]pyrimidin-4-yl]-N-(2-sulfamoylethyl)benzamide] were 13.1 nM, 17.2 nM and 283 nM.
Taken in the same sequence, the figures for `C[C@H]1CCN1c1nc2c(c(-c3cccc(C(=O)NCCC(N)=O)c3)n1)CCC2` [Example 220, N-(3-amino-3-oxo-propyl)-3-[2-[(2S)-2-methylazetidin-1-yl]-6,7-dihydro-5H-cyclopenta[d]pyrimidin-4-yl]benzamide] were 57.3 nM, 58.6 nM and 190 nM.
